Measured values: PMC11571108, “Targeting PfCLK3 with Covalent Inhibitors: A Novel Strategy for Malaria Treatment” (Journal of Medicinal Chemistry, 2024)
Read-outs that look alike come from different tables or passages of the source.

Tests used:
[1] = system: asexual P. falciparum 3D7 parasites; experiment: Time of inhibition assays in 3D7 parasites; assay type: cell-based; conditions: Plasmodium falciparum, read at 72 hpi
Method: Synchronised parasites between 0.4 and 0.6% parasitemia at 4% hematocrit were plated in 384 well plates. To early ring stage plate (0−) rings, serially diluted drugs were added to the parasites in triplicate and incubated as plate 1. At 16 hpi, late ring stage parasites were exposed to the same drug concentrations previously diluted as in plate 1. This was repeated for 24 hpi plates. […] As described previously, the plates were thawed at RT for about an hour before they were SyBr green stained in lysis buffer.

[2] = system: PfCLK3 kinase domain (334–699); experiment: Intact protein mass spectrometry, covalent adduct formation; assay type: binding, Plasmodium falciparum; conditions: for Covalent Adduct Formation (%): pH 7.4, 4 h incubation
Source text: Covalent adduct formation was investigated by intact protein mass spectrometry.

SMILES | EC50 ([1]; dosed at 16 hpi, read-out: pEC50 (3D7) 16 hpi (converted)) [nM] | EC50 ([1]; dosed at 24 hpi, read-out: pEC50 (3D7) 24 hpi (converted)) [nM] | EC50 ([1]; dosed at early-ring stage (0 h), read-out: pEC50 (3D7) 0-3 hpi (converted)) [nM] | covalent adduct formation (observed or not) ([2]; pH 7.4, 4 h) | Covalent Adduct Formation (%) [2] [%] | covalent adduct formation (observed or not) ([2]; pH raised to 9)
C[C@@H]1CC[C@H]2[C@@H](C)C(=O)O[C@@H]3O[C@@]4(C)CC[C@@H]1[C@]32OO4 [Artemisinin] | 112 | 95.5 | 13.5 | – | – | –
C=CC(=O)N1CCN(Cc2ccc(OC)c(-c3cc4c(-c5ccc(C(=O)O)cc5)ccnc4[nH]3)c2)CC1 [Compound 2, 4-[2-(2-methoxy-5-{[4-(prop-2-enoyl)piperazin-1-yl]methyl}phenyl)-1H-pyrrolo[2,3-b]pyridin-4-yl]benzoic Acid] | – | – | – | no covalent adduct formation was observed | 0 | adduct formation was observed
COc1ccc(CN2CCN(C(=O)/C=C/CN(C)C)CC2)cc1-c1cc2c(-c3ccc(C(=O)O)cc3)ccnc2[nH]1 [Compound 3, 4-{2-[5-({4-[(2E)-4-(dimethylamino)but-2-enoyl]piperazin-1-yl}methyl)-2-methoxyphenyl]-1H-pyrrolo[2,3-b]pyridin-4-yl}benzoic Acid] | – | – | – | no adduct formation | 0 | –
